# Assay results published in US20210196838A1, “COMPOUNDS AND COMPOSITIONS FOR POTENTIATION OF TLR AGONISTS” (priority 2018, published 2021).
# Assays:
# [1] = tested on: vesicular stomatitis virus-green fluorescent protein (VSV-GFP); type: cell-based
# [2] = tested on: rainbow trout gut cells (RT-gut); assay: Uptake of fluorescently labelled poly IC in RT-gut cells; type: cell-based; conditions: 1 ug/ml, 20 degree treatment, 4 hours
# viral infection = conditions: free agonist dosing provided by Zhao et. al, 2012; cited from earlier work
substance,measurement,setting,value
polyinosinic:polycytidylic acid [poly IC],equivalent dose in an antiviral assay,[1],1000 µg/mL
same,intracellular fluorescence,[2],no fluorescence was detected
same,dose sufficient to protect mice from viral infection,viral infection,20 µg
